Assays:
Experiment in all cases: relative viability (nuclei count vs DMSO), 5 days (fraction); higher = more cells survive
Vorinostat + OSI-027 = compound: O=C(CCCCCCC(=O)Nc1ccccc1)NO [Vorinostat] + COc1cccc2cc(-c3nc([C@H]4CC[C@H](C(=O)O)CC4)n4ncnc(N)c34)[nH]c12 [OSI-027] (partner 0.5 µM)
Outline: (§1)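 A single step with final 0.05% Triton X-100, 1% formaldehyde and 1 ug/ml Hoechst fixed the cells and stained nuclei 5 days after treatment. Lung cancer cell lines in 1536-well plates had been treated by pin tool the day after seeding with one drug alone or a fixed anchor-drug dose plus five library-drug doses (not always all listed) in √10 steps, and nuclei were counted on 4× images. Relative viability is the ratio of nuclei in treated wells to nuclei in vehicle wells, taken as the median of duplicate plates.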

Vorinostat + Bortezomib = compound: O=C(CCCCCCC(=O)Nc1ccccc1)NO [Vorinostat] + CC(C)C[C@H](NC(=O)[C@H](Cc1ccccc1)NC(=O)c1cnccn1)B(O)O [Bortezomib] (partner 0.002 µM)
Outline: as §1

Vorinostat + Palbociclib = compound: O=C(CCCCCCC(=O)Nc1ccccc1)NO [Vorinostat] + CC(=O)c1c(C)c2cnc(Nc3ccc(N4CCNCC4)cn3)nc2n(C2CCCC2)c1=O [Palbociclib] (partner 0.5 µM)
Outline: as §1

Vorinostat + Decitabine = compound: O=C(CCCCCCC(=O)Nc1ccccc1)NO [Vorinostat] + Nc1ncn([C@H]2C[C@H](O)[C@@H](CO)O2)c(=O)n1 [Decitabine] (partner 2 µM)
Outline: as §1

Vorinostat + Alpelisib = compound: O=C(CCCCCCC(=O)Nc1ccccc1)NO [Vorinostat] + Cc1nc(NC(=O)N2CCC[C@H]2C(N)=O)sc1-c1ccnc(C(C)(C)C(F)(F)F)c1 [Alpelisib] (partner 2 µM)
Outline: as §1

| Cell Line | relative viability (Vorinostat + OSI-027; first compound 0.253 µM) | relative viability (Vorinostat + OSI-027; first compound 0.8 µM) | relative viability (Vorinostat + OSI-027; first compound 2.53 µM) | relative viability (Vorinostat + OSI-027; first compound 8 µM) | relative viability (Vorinostat + Bortezomib; first compound 0.253 µM) | relative viability (Vorinostat + Bortezomib; first compound 0.8 µM) | relative viability (Vorinostat + Bortezomib; first compound 2.53 µM) | relative viability (Vorinostat + Bortezomib; first compound 8 µM) | relative viability (Vorinostat + Palbociclib; first compound 0.253 µM) | relative viability (Vorinostat + Palbociclib; first compound 0.8 µM) | relative viability (Vorinostat + Palbociclib; first compound 2.53 µM) | relative viability (Vorinostat + Palbociclib; first compound 8 µM) | relative viability (Vorinostat + Decitabine; first compound 0.253 µM) | relative viability (Vorinostat + Decitabine; first compound 0.8 µM) | relative viability (Vorinostat + Decitabine; first compound 2.53 µM) | relative viability (Vorinostat + Decitabine; first compound 8 µM) | relative viability (Vorinostat + Alpelisib; first compound 0.253 µM) | relative viability (Vorinostat + Alpelisib; first compound 0.8 µM) | relative viability (Vorinostat + Alpelisib; first compound 2.53 µM) | relative viability (Vorinostat + Alpelisib; first compound 8 µM) |
| --- | --- | --- | --- | --- | --- | --- | --- | --- | --- | --- | --- | --- | --- | --- | --- | --- | --- | --- | --- | --- |
| HCC-827 | 0.923 | 0.853 | 0.743 | 0.259 | 1.03 | 1.11 | 0.913 | 0.451 | 0.576 | 0.506 | 0.333 | 0.135 | 0.344 | 0.343 | 0.274 | 0.213 | 1.08 | 1.04 | 0.634 | 0.197 |
| H3255 | 0.669 | 0.694 | 0.478 | 0.289 | 0.778 | 0.622 | 0.456 | 0.154 | 0.349 | 0.337 | 0.303 | 0.232 | 0.839 | 0.607 | 0.427 | 0.173 | 0.874 | 0.714 | 0.414 | 0.209 |
| NCI-H1975 | 0.783 | 0.609 | 0.231 | 0.121 | 0.438 | 0.198 | 0.0889 | 0.081 | 0.569 | 0.461 | 0.164 | 0.104 | 0.435 | 0.441 | 0.165 | 0.113 | 0.696 | 0.528 | 0.189 | 0.133 |
| NCI-H441 | 0.705 | 0.576 | 0.229 | 0.194 | 0.299 | 0.26 | 0.165 | 0.106 | 0.241 | 0.249 | 0.157 | 0.101 | 0.223 | 0.199 | 0.168 | 0.104 | 0.754 | 0.616 | 0.289 | 0.11 |
| ABC-1 | 0.491 | 0.352 | 0.159 | 0.102 | 0.297 | 0.281 | 0.175 | 0.194 | 0.696 | 0.563 | 0.344 | 0.137 | 1.33 | 0.896 | 0.421 | 0.158 | 1.02 | 0.636 | 0.354 | 0.161 |
| NCI-H661 | 0.79 | 0.665 | 0.297 | 0.245 | 0.839 | 0.933 | 0.439 | 0.185 | 0.437 | 0.377 | 0.286 | 0.32 | 0.575 | 0.468 | 0.335 | 0.316 | 1.23 | 1.09 | 0.491 | 0.171 |
| EMC-BAC-2 | 0.356 | 0.316 | 0.173 | 0.146 | 1.22 | 1.02 | 0.405 | 0.167 | 0.49 | 0.425 | 0.254 | 0.203 | 0.958 | 0.716 | 0.373 | 0.168 | 0.88 | 0.745 | 0.409 | 0.113 |
| NCI-H2085 | 0.722 | 0.463 | 0.415 | 0.205 | 0.942 | 0.841 | 0.566 | 0.265 | 0.464 | 0.419 | 0.302 | 0.172 | 0.569 | 0.554 | 0.379 | 0.281 | 0.982 | 0.947 | 0.514 | 0.255 |
| NCI-H1651 | 1 | 0.607 | 0.195 | 0.0644 | 0.934 | 0.992 | 0.807 | 0.1 | 0.545 | 0.494 | 0.154 | 0.0594 | 0.58 | 0.477 | 0.202 | 0.0686 | 1.04 | 0.713 | 0.119 | 0.0787 |
| NCI-H2087 | 0.746 | 0.417 | 0.106 | 0.063 | 0.739 | 0.608 | 0.159 | 0.115 | 0.277 | 0.107 | 0.0624 | 0.0734 | 0.271 | 0.207 | 0.105 | 0.051 | 1.03 | 1.06 | 0.393 | 0.134 |
| LXF-289 | 0.969 | 0.761 | 0.407 | 0.0564 | 1.08 | 0.923 | 0.348 | 0.057 | 0.65 | 0.599 | 0.476 | 0.0862 | 0.328 | 0.37 | 0.229 | 0.0489 | 1.1 | 1.04 | 0.351 | 0.0687 |
| NCI-H3122 | 1.26 | 1.1 | 0.135 | 0.129 | 1.07 | 0.995 | 1.03 | 0.145 | 0.19 | 0.254 | 0.142 | 0.0743 | 0.45 | 0.582 | 0.269 | 0.117 | 0.768 | 0.811 | 0.393 | 0.208 |
| NCI-H1734 | 0.803 | 0.672 | 0.362 | 0.137 | 1.14 | 0.96 | 0.417 | 0.109 | 0.402 | 0.34 | 0.253 | 0.133 | 0.548 | 0.444 | 0.31 | 0.0873 | 0.714 | 0.7 | 0.518 | 0.137 |
| NCI-H838 | 0.531 | 0.508 | 0.298 | 0.137 | 1.22 | 0.864 | 0.275 | 0.134 | 0.262 | 0.218 | 0.183 | 0.116 | 0.542 | 0.597 | 0.325 | 0.198 | 1.23 | 1.1 | 0.605 | 0.185 |
| NCI-H2023 | 0.473 | 0.359 | 0.134 | 0.0617 | 1.16 | 0.657 | 0.223 | 0.07 | 0.467 | 0.375 | 0.199 | 0.0512 | 0.242 | 0.177 | 0.11 | 0.0687 | 0.623 | 0.509 | 0.292 | 0.0757 |
| LOU-NH91 | 0.828 | 0.62 | 0.516 | 0.303 | 0.514 | 0.475 | 0.438 | 0.354 | 0.533 | 0.515 | 0.512 | 0.384 | 0.845 | 0.854 | 0.702 | 0.45 | 0.792 | 0.676 | 0.452 | 0.322 |
